This data set can be described thus: Example 2: pharmacokinetics of oral and intravenous buprenorphine hydrochloride under naltrexone blockade. To be noted: injection, equimolar to 0.3 mg buprenorphine base, over 15 min; n = 8.

Each structure is given as a SMILES string.

For `CO[C@@]12CC[C@@]3(C[C@@H]1[C@](C)(O)C(C)(C)C)[C@H]1Cc4ccc(O)c5c4[C@@]3(CCN1CC1CC1)[C@H]2O5.Cl` [Buprenorphine i.v., Buprenorphine HCl], the “Buprenorphine Mean Cmax” value stood at 4.26 ng/mL and the “Buprenorphine Mean Tmax” value worked out at 20.2 min.

The record behind these values is US12201629B2 (priority 2017, dated 2025).
